Test results taken from PMC9126595, “Identification of 3-(piperazinylmethyl)benzofuran derivatives as novel type II CDK2 inhibitors: design, synthesis, biological evaluation, and in silico insights” (Journal of Enzyme Inhibition and Medicinal Chemistry, 2022).
Like-named read-outs stand apart in the source and are kept apart here.

Experiments:
[1] = test system: MCF-7 breast cancer cell line; experiment: SRB anti-proliferative assay, MCF-7; type: cell-based, human; settings: read-out: IC50 MCF-7
Description: (§1) The experimental details for the performed biological assays; Sulforhodamine B (SRB) cytotoxicity, CDK2 kinase, Annexin V-FITC apoptosis, and cell cycle assays[86–89] were mentioned in the Supporting Information.
(§2) 1. Anti-proliferative activity assay
(§3) The examined human pancreatic cancer (Panc-1), breast cancer (MCF-7), and lung carcinoma (A549) cell lines have been obtained from American Type Culture Collection (ATCC). The cells were maintained in Dulbecco's modified Eagle's medium (DMEM) supplemented with 10% heat inactivated fetal calf serum (GIBCO), penicillin (100 U/ml) and streptomycin (100 µg/ml) at 37 °C in humidified atmosphere containing 5% CO2. […]
(§4) a 25 cm2 flask in 5 ml of culture medium. The anti-proliferative activity of the tested 3-(piperazinylmethyl)benzofurans (9, 11, 13, 15 and 17) was measured in vitro using the Sulfo-Rhodamine-B stain (SRB) assay. Briefly, cells were plated out in 96-well microtiter plate (0.5X10^4 cells/well) and incubated for 24 h before treatment with the tested hybrids to allow cells to attach to the bottom of the well of the plate. Tested benzofurans were dissolved in DMSO at 1 mg/ml immediately before use and diluted to the appropriate volume just before addition to the cell culture. Different concentrations of tested benzofurans, and Staurosporine were added to the cells (three wells were prepared for each individual dose). Cells were incubated with the hybrids for 48 […]
(§5) After 48 h cells were fixed, washed, and stained for 30 min with 0.4% (w/v) SRB dissolved in 1% acetic acid. Unbound dye was removed by four washes with 1% acetic acid, and attached stain was recovered with Tris-EDTA buffer. Color intensity was measured in an ELISA reader. The relation between percent of surviving fraction and log drug concentration is plotted to get the survival curve for each cell line. […]

[2] = test system: Panc-1 pancreatic cancer cell line; experiment: SRB anti-proliferative assay, Panc-1; type: cell-based, human; settings: read-out: IC50 Panc-1
Description: as §1, §2, §3, §4, §5

[3] = test system: A-549 lung carcinoma cell line; experiment: SRB anti-proliferative assay, A-549; type: cell-based, human; settings: read-out: IC50 A-549
Description: as §1, §2, §3, §4, §5

[4] = test system: Panc-1 cells; experiment: Annexin V-FITC/PI apoptosis assay; type: cell-based, human; settings: Panc-1, IC50 concentration; for total apoptotic cells percentage: control 2.41%; for early apoptotic phase percentage: lower right quadrant, control 0.59%; for late apoptotic phase percentage: upper right quadrant, control 0.32%
Experimental: Anx V flowcytometry assay is featured as a helpful tool to determine whether cells death is due to the physiological apoptosis or to the non-specific necrosis.
3. Annexin V-FITC Apoptosis Assay
Phosphatidylserine externalization was assayed using Annexin V-FITC/PI apoptosis detection kit (BD Biosciences, USA) according to the manufacturer’s instructions. Pancreatic cancer Panc-1 […]
concentration. Briefly, cells were then harvested via trypsinization, and rinsed twice in PBS followed by binding buffer. Moreover, cells were re-suspended in 100 μL of binding buffer with the addition of 1 μL of FITC-Annexin V followed by an incubation period of 30 min at 4 °C. Cells were then rinsed in binding buffer and resuspended in 150 μL of binding buffer with the addition

[5] = test system: non-tumorigenic human lung fibroblast MRC-5 cell line; experiment: Normal cell cytotoxicity, MRC-5; type: cell-based
Experimental: To test the safety of the newly synthesised compounds and their selectivity towards cancer cells, their cytotoxic activity was tested on non-tumorigenic human lung fibroblast MRC-5 cell line.

[6] = test system: Panc-1 cells; experiment: Cell cycle analysis (PI flow cytometry); type: cell-based, human; settings: Panc-1, IC50 dose, 24 h; for proportion of cells in sub-G1 phase: control 2.36%; for proportion of cells in G2/M phase: control 12.17%; for cells population in S phase: control 41.90%; for cells population in G0/G1 phase: control 43.57%
Experimental: as §3
a 25 cm2 flask in 5 ml of culture medium. […]
The concentration required for […]
concentration), and then cells were washed twice with ice-cold phosphate buffered saline (PBS).
Subsequently, the treated cells were collected by centrifugation, fixed in ice-cold 70% (v/v) ethanol, washed with PBS, re-suspended with 100 μg/mL RNase, stained with 40 μg/mL PI, and analyzed by flow cytometry using FACS Calibur (Becton Dickinson, BD, Franklin Lakes, NJ, USA). The cell cycle distributions were calculated using CellQuest software 5.1 (Becton

[7] = target: T1, CDK2 (Homo sapiens, UniProt P24941); experiment: CDK2 kinase inhibitory assay (Promega CDK2 Kinase Enzyme System); type: biochemical; settings: mean ± SD of three separate experiments
T1 construct: purchased Promega V2971
Description: The experimental details for the performed biological assays; Sulforhodamine B (SRB) cytotoxicity, CDK2 kinase, Annexin V-FITC apoptosis, and cell cycle assays[86–89] were mentioned in the Supporting Information. […]
4. CDK Kinase Inhibitory Activity
CDK2 Kinase Enzyme System (catalog No. V2971) (Promega, Milan, Italy), according to the
manufacturer’s instructions. […]

[8] = Homo sapiens, MCF7, SRB, 48 h, mean of 3 separate experiments
[9] = Homo sapiens, PANC-1, SRB, 48 h, mean of 3 separate experiments
[10] = Homo sapiens, A549, SRB, 48 h, mean of 3 separate experiments
[11] = MRC5, normal lung fibroblasts, mean of three separate experiments, read-out: IC50 MRC-5
[12] = SRB, 48 h, mean of 3 separate experiments

IC50 [1, 8] [µM]	IC50 [2, 9] [µM]	IC50 [3, 10] [µM]	IC50 [7] [µM]	melting point [°C]	SMILES	IC50 [5, 11] [µM]	also measured
–	–	–	–	–	O=C(NNC(=O)c1oc2ccccc2c1CN1CCN(c2ccccc2)CC1)Nc1ccc(Cl)c(C(F)(F)F)c1 [Compound 11d]	–	IC50 ([1]; Homo sapiens, MCF7, 48 h): 5.57 ± 0.47 µM; IC50 ([2]; Homo sapiens, PANC-1, 48 h): 2.22 ± 0.13 µM; IC50 ([3]; Homo sapiens, A549, 48 h): 2.99 ± 0.21 µM; total apoptotic cells percentage [4]: 29.93%; early apoptotic phase percentage [4]: 2.64%; late apoptotic phase percentage [4]: 15.87%; IC50 ([5]; MRC5, read-out: IC50 MRC-5): 74 ± 5 µM; proportion of cells in sub-G1 phase [6]: 23.04%; proportion of cells in G2/M phase [6]: 27.52%; cells population in S phase [6]: 22.61%; cells population in G0/G1 phase [6]: 26.83%
118 ± 8.39	169 ± 9.41	109 ± 7.59	0.152 ± 0.0077	–	O=C(NN=Cc1ccccc1)c1oc2ccccc2c1CN1CCN(c2ccccc2)CC1 [Compound 13a]	> 500	–
2.92 ± 0.17	0.94 ± 0.1	1.71 ± 0.12	0.0409 ± 0.0021	–	O=C(NNC(=S)Nc1cccc(C(F)(F)F)c1)c1oc2ccccc2c1CN1CCN(c2ccccc2)CC1 [Compound 9h]	27.7 ± 1.8	total apoptotic cells percentage [4]: 43.51%; early apoptotic phase percentage [4]: 5.41%; late apoptotic phase percentage [4]: 20.99%; proportion of cells in sub-G1 phase [6]: 30.32%; proportion of cells in G2/M phase [6]: 32.46%; cells population in S phase [6]: 16.66%; cells population in G0/G1 phase [6]: 20.56%
–	–	–	–	–	COc1ccc(NC(=O)NNC(=O)c2oc3ccccc3c2CN2CCN(c3ccccc3)CC2)cn1 [Compound 11e]	–	IC50 ([1]; Homo sapiens, MCF7, 48 h): 48.7 ± 3.54 µM; IC50 ([2]; Homo sapiens, PANC-1, 48 h): 54.6 ± 4.22 µM; IC50 ([5]; MRC5, read-out: IC50 MRC-5): 244 ± 18 µM
123 ± 6.82	120 ± 5.77	98.4 ± 5.61	0.333 ± 0.017	191 to 193	CC(=NNC(=O)c1oc2ccccc2c1CN1CCN(c2ccccc2)CC1)c1ccccc1 [Compound 15a]	452 ± 28	–
–	–	–	–	–	COc1ccc(NC(=O)NNC(=O)c2oc3ccccc3c2CN2CCN(c3ccccc3)CC2)cc1 [Compound 11c]	–	IC50 ([1]; Homo sapiens, MCF7, 48 h): 76.9 ± 5.21 µM; IC50 ([2]; Homo sapiens, PANC-1, 48 h): 61.5 ± 4.52 µM; IC50 ([3]; Homo sapiens, A549, 48 h): 57 ± 2.33 µM; IC50 ([5]; MRC5, read-out: IC50 MRC-5): 246 ± 13 µM
121 ± 8.39	122 ± 6.34	111 ± 6.38	0.0698 ± 0.0036	197 to 199	O=C(NNC(=S)Nc1ccc(Cl)cc1)c1oc2ccccc2c1CN1CCN(c2ccccc2)CC1 [Compound 9g]	342 ± 30	–
127 ± 7.56	126 ± 7.06	127 ± 7.61	0.119 ± 0.0061	–	O=C(NNC(=S)Nc1cccc(Cl)c1)c1oc2ccccc2c1CN1CCN(c2ccccc2)CC1 [Compound 9f]	391 ± 25	–
44.4 ± 2.96	25.4 ± 1.7	28.5 ± 1.92	0.127 ± 0.0065	–	COc1ccc(C(C)=NNC(=O)c2oc3ccccc3c2CN2CCN(c3ccccc3)CC2)cc1 [Compound 15b]	160 ± 10	–
–	–	–	–	–	O=C(NNC(=O)c1oc2ccccc2c1CN1CCN(c2ccccc2)CC1)Nc1ccccc1 [Compound 11a]	–	IC50 ([1]; Homo sapiens, MCF7, 48 h): 55.9 ± 3.18 µM; IC50 ([2]; Homo sapiens, PANC-1, 48 h): 56.8 ± 2.94 µM; IC50 ([3]; Homo sapiens, A549, 48 h): 49.3 ± 3.27 µM; IC50 ([5]; MRC5, read-out: IC50 MRC-5): 178 ± 13 µM
98.5 ± 4.47	61.9 ± 3.48	80.4 ± 4.87	0.0849 ± 0.0043	–	COc1cccc(NC(=S)NNC(=O)c2oc3ccccc3c2CN2CCN(c3ccccc3)CC2)c1 [Compound 9b]	289 ± 19	–
13.6 ± 0.94	4.47 ± 0.29	14.4 ± 1.02	0.0526 ± 0.0027	181 to 182	COc1ccc(C=NNC(=O)c2oc3ccccc3c2CN2CCN(c3ccccc3)CC2)cc1 [Compound 13c]	121 ± 9	–
5.89 ± 0.43	3.29 ± 0.2	5.24 ± 0.4	0.065 ± 0.0033	218 to 220	O=C(NNC(=S)Nc1ccc(F)cc1)c1oc2ccccc2c1CN1CCN(c2ccccc2)CC1 [Compound 9e]	52 ± 3	–
53.9 ± 3.57	27.2 ± 1.87	40.4 ± 2.74	0.0777 ± 0.041	–	O=C(NNC(=S)Nc1cccc(F)c1)c1oc2ccccc2c1CN1CCN(c2ccccc2)CC1 [Compound 9d]	166 ± 14	–
27.3 ± 2.05	19.2 ± 1.27	29.2 ± 2.06	0.0894 ± 0.00462	–	CC(=O)c1ccc(NC(=S)NNC(=O)c2oc3ccccc3c2CN2CCN(c3ccccc3)CC2)cc1 [Compound 9i]	142 ± 11	–
118 ± 6.02	86.9 ± 4.17	85.5 ± 6.21	0.322 ± 0.016	198 to 200	O=C(NNC(=S)Nc1ccccc1)c1oc2ccccc2c1CN1CCN(c2ccccc2)CC1 [Compound 9a]	406 ± 21	–
–	–	–	–	–	N.N.[Cl][Pt][Cl] [Cisplatin, reference compound]	–	IC50 [1, 12]: 5.45 ± 0.4 µM; IC50 [2, 12]: 6.98 ± 0.35 µM; IC50 [3, 12]: 6.72 ± 0.37 µM
–	–	–	–	–	COc1cccc(NC(=O)NNC(=O)c2oc3ccccc3c2CN2CCN(c3ccccc3)CC2)c1 [Compound 11b]	–	IC50 ([1]; Homo sapiens, MCF7, 48 h): 15.2 ± 1.34 µM; IC50 ([2]; Homo sapiens, PANC-1, 48 h): 10.2 ± 0.86 µM; IC50 ([3]; Homo sapiens, A549, 48 h): 13.8 ± 1.04 µM; IC50 ([5]; MRC5, read-out: IC50 MRC-5): 121 ± 10 µM
82.8 ± 5.43	80.4 ± 4.83	58.9 ± 1.88	0.0656 ± 0.0033	–	O=C(NN=C1CCCc2ccccc21)c1oc2ccccc2c1CN1CCN(c2ccccc2)CC1 [Compound 17]	284 ± 15	–
86.6 ± 5.28	103 ± 6.21	72.2 ± 5.36	0.214 ± 0.011	182 to 184	COc1ccc(NC(=S)NNC(=O)c2oc3ccccc3c2CN2CCN(c3ccccc3)CC2)cc1 [Compound 9c]	261 ± 20	–
2.98 ± 0.18	1.04 ± 0.08	1.71 ± 0.1	0.0656 ± 0.00331	176 to 178	COc1cccc(C=NNC(=O)c2oc3ccccc3c2CN2CCN(c3ccccc3)CC2)c1 [Compound 13b]	18.1 ± 1.3	–
